Consider 3 substances from PMC11345766, “Computational Design of Pore-Forming Peptides with Potent Antimicrobial and Anticancer Activities” (Journal of Medicinal Chemistry, 2024).

Ends that are not written are not given here.

The test system of series [1] is panel of 20 different human cancer and 2 noncancerous cell lines. In kind it is cell-based. Conditions: 72 h. The protocol:
First, we tested LP40 and LP1 for anticancer activity at the physiological pH. The peptides were screened against a panel of 20 different human cancer and 2 noncancerous cell lines using a CellTiter-Glo luminescent cell viability assay (Figure 6b). […] For few exceptional cell lines, the activity of LP40 was below 10 μM.
The CellTiter-Glo luminescent cell viability assay examining the impact of peptides on 22 different human cell lines was purchased from Reaction Biology Europe GmbH (Germany). Cells were cultured in different media (Table S1), seeded into a flat-bottom 96-well plate, and incubated at 37 °C. After overnight incubation, test compounds were added with 1% PBS/0.3% Tween 20 and the reference compound bortezomib was added with 0.1% DMSO. Negative controls were solvents alone, and positive control was 10 μM staurosporine. After 72 h of incubation at 37 °C, 5 or 10% CO2 (dependent on the medium), and 1 h equilibration at room temperature, well plates were treated with CellTiter-Glo reagent (Promega) for an hour and luminescence was measured using a luminometer.

The subject of series [2] is MCF-7 cells. The experiment in a line: Immunoblotting of cleaved PARP and caspase-3. Format: cell-based, human. Conditions: 1 h treatment; media of different pH. The protocol: Furthermore, immunoblotting detection of cleaved PARP and caspase-3 markers confirmed the induction of apoptosis in MCF-7 cells by the peptides (Figure S10c).
MCF-7 cells were seeded at 2.5 × 10^5 cells/well in a 24-well plate 1 day before the experiment. Cells were treated with either peptides or PBS alone (negative control) and cultured in different media for 1 h. Cells were lysed using a buffer consisting of 1% SDS, 50 mM Tris–HCl (pH 6.8), and 10% glycerol with phosphatase and protease inhibitors. The protein concentration was determined by using the DC Protein Assay (Bio-Rad). Proteins were separated by SDS-PAGE and transferred to the PVDF membrane with a 0.45 μm pore size. The membranes were incubated with primary antibodies to detect cleaved PARP (no. 5625, 1:1000, Cell Signaling), total PARP (no. 9542, 1:2000, Cell Signaling), cleaved caspase-3 (no. 9664, 1:1000, Cell Signaling), or β-actin (no. 4970, 1:2000; Cell Signaling). Secondary HRP-linked antirabbit antibody (1:2000, Cell Signaling) was used to detect primary antibodies. Signal was detected using Clarity Western ECL Substrate (BioRad) and UVITEC Alliance (Uvitec).

Series [3] concerns E. coli AIC222 (COL). Conditions: E. coli / AIC222 / COL / Prot. d; Prot. d.
The subject of series [4] is E. coli ATCC 11775. Conditions: E. coli / ATCC 11775 / Prot. d; Prot. d.
Series [5] relates to E. coli AIC221. Conditions: E. coli / AIC221 / Prot. d; Prot. d.
For series [6], the system named is E. coli E1098 (GEN, AMI, IMI, MER). As to conditions: E. coli / E1098 / GEN, AMI, IMI, MER / Prot. c; Prot. c.
Series [7] in a line: AFM imaging of supported lipid bilayers. Conditions: P:L 1:500 (1 μM peptide). As for the experimental part:
The SLBs were composed of POPC:POPG (1:1 mol/mol) lipids, the same composition used in the dye leakage assay. […] The pores were stable for an investigation period of 2 h and were visibly more numerous than those produced by LP1.[29]
Effects of peptides on the SLBs composed of POPC:POPG (1:1 mol/mol) lipids was investigated using AFM. LUVs were prepared in lipid dissolution buffer (50 mM Tris–HCl and 50 mM KCl) following a dye leakage assay protocol without calcein. Vesicles were sonicated for 30 min at 25 °C and extruded through a 50 nm pore size filter to form small unilamellar vesicles (SUVs). Following the vesicle deposition method,[103] SLBs were formed on mica using SUVs in SLB-forming buffer (50 mM Tris–HCl and 300 mM KCl) and 5 mM CaCl2, mounting a total volume of 150 μL on mica. After 1 h incubation at 25 °C, mica was washed 10 times with SLB-forming buffer and subjected to AFM analysis. The investigated P:L ratio was 1:500 (mol/mol). Bruker Dimension Icon AFM (USA) equipped with a PeakForce-HIRS-F-B silicon nitride probe (spring constant 0.12 N/m) was used to capture topographic images. PeakForce Quantitative NanoMechanic hybrid mode was used with 2 kHz frequency and 25 nm amplitude using set point <100 pN. The scan rate was 1 Hz using 512 samples/line. […]

Series [8] concerns A. baumannii Z13 (GEN, AMI, IMI, MER). Conditions: A. baumannii / Z13 / GEN, AMI, IMI, MER / Prot. c; Prot. c.
Series [9] concerns K. pneumoniae 4371 (GEN, AMI, IMI, MER). Conditions: K. pneumoniae / 4371 / GEN, AMI, IMI, MER / Prot. c; Prot. c.
The subject of series [10] is normal B and T lymphocytes, granulocytes, and monocytes in whole blood. The series is described as follows: Viability by flow cytometric staining in whole blood. Conditions: up to the highest tested concentration of 50 μM; 16 h. Format: cell-based, human. As for the experimental part:
Finally, we tested the effect of LP1 and LP40 on healthy primary cells in whole blood from a healthy donor (Figure S11).
The whole blood was seeded in a 96-well plate at 200 μL/well and treated with peptides for 16 h. The samples were then stained with anti-CD3 (FITC, Sony), anti-CD14 (APC-Cy7, Sony), and anti-CD19 (PE, Beckman Coulter) antibodies and incubated for 20 min at room temperature in the dark. The cells were then incubated with red blood cell lysis buffer for 10 min at room temperature, centrifuged, resuspended in PBS containing SYTOX Blue Dead Cell Stain (Thermo Fisher Scientific) and measured using a FACSVerse flow cytometer (BD Biosciences).
In general terms: In flow cytometry, cells or beads pass a laser one at a time.

Series [11] deals with E. coli (E1098). As to conditions: E1098, 18 h.

The substance “H-HHHHLKKILKKLFQFINQLDNQLQDIHHHH-OH [LP40]” yielded an IC50 in series [1] of over 100 µM. In addition, in [2], the “Cleaved PARP and caspase-3 (apoptosis)” value is “higher at pH 6”.

Consider “KKKKLKKILKKLFQFINQLDNQLQDIKKKK-NH2 [LP18]”, for which the MIC in series [3] worked out at 1.6 µM; in series [4], 1.6 µM; in series [5], 1.6 µM; in [6], 2 µM. Further, in series [7], the “Membrane defects or pores formed on SLBs” value was “significantly higher number of membrane defects or pores than LP1”.

For the substance “KKKKLKKILKKLFQFINQLDNQLQDIKQNK-NH2 [LP1]”, the MIC was found to be 4 µM in series [8], 16 µM in series [9] and 1 µM in series [11]. Moreover, the “Effect on healthy primary cells in whole blood” value in [10] was “no apparent deleterious effect”.

Usually IC50 stands for the concentration at which inhibition is half-maximal. A lower IC50 goes with greater potency. By MIC is commonly meant the least concentration at which growth counts as inhibited. A low value points to greater potency.
